pIC50: −log10 of the molar value.
Experiments:
[1] = molecular target: AUR1 (Homo sapiens, UniProt Q96GD4); experiment: Enzyme inhibition activity, AUR1; type: biochemical
Procedure: (§1) Operating as described above in the tests of inhibition activity on enzymes, or in an analogous way, the following data were obtained for 2-methyl-N-{4-[2-(methylamino)-2-oxoethyl]-1-oxo-2,9-dihydro-1H-beta-carbolin-6-yl}hexanamide (Compound XIIIh). The same compound was tested for cytotoxic activity on cells as described below.

[2] = molecular target: T1, AUR2 (Homo sapiens, UniProt O14965); experiment: Inhibition assay of Aurora-2 activity; type: biochemical; conditions: Enzyme AUR2
T1 sequence (O14965 1-403): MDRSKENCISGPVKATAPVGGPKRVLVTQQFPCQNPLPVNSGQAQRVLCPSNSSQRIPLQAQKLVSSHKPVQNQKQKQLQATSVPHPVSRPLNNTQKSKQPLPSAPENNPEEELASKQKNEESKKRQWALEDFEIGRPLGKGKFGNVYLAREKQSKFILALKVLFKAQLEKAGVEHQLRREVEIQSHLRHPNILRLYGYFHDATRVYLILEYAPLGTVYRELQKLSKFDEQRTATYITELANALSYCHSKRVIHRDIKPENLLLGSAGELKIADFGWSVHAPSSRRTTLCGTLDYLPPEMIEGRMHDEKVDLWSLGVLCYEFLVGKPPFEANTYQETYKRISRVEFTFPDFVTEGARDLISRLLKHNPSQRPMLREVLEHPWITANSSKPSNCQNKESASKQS
Procedure: Inhibition assay of Aurora-2 activity
The inhibiting activity and the potency of selected compounds was determined through a method of assay based on the use of the streptavidin scintillation proximity assay beads (amershampharmacia biotech) run in a 96 well plates. At the end of the reaction, the biotinylated peptide substrate was captured with the beads and subsequently allowed to stratify using CsCl. When a radioactivity labeled phosphate moiety was transferred by the kinase to the beads-bound peptide, light emitted was measured in a scintillation counter.
The inhibition assay of Aurora-2 activity was performed in 96 wells plate according to the following protocol:
8 µM biotinylated peptide (4 repeats of LRRWSLG), 10 µM ATP (0.5 uCi P^33g-ATP), 10 nM Aurora2, 10 µM inhibitor in a final volume of 60 µl buffer (HEPES 50 mM pH 7.0, MgCl2 10 mM, 1 mM DTT, 0.125 mg/ml BSA, 3µM orthovanadate) were added to each well of a 96 U bottom well plate. After 30 minutes at room temperature incubation, reaction was stopped and biotinylated peptide captured by adding 100 µl of bead suspension.
100 µl of CsCl 7.5 M were added to each well and let stand one hour before radioactivity was counted in the Top-Count instrument.
Results: data were analyzed and expressed as % inhibition referred to total activity of enzyme (=100%). […]

[3] = molecular target: T2, CDK2/CYCA (Homo sapiens, UniProt P24941); experiment: Inhibition assay of Cdk2/Cyclin A activity; type: biochemical; conditions: Enzyme CDK2/CYCA
T2 construct: made in house
Procedure: Inhibition assay of Cdk2/Cyclin A activity
1.5 µM histone H1 substrate, 25 µM ATP (0.2 µCi P33γ-ATP), 30 ng of baculovirus co-expressed Cdk2/Cyclin A, 10 µM inhibitor in a final volume of 100 µl buffer (TRIS HCl 10 mM pH 7.5, MgCl2 10 mM, 7.5 mM DTT) were added to each well of a 96 U bottom well plate. After 10 min at 37 °C incubation, reaction was stopped by 20 µl EDTA 120 mM.
100 µl were transferred from each well from the kinase reaction to MultiScreen plate, to allow substrate binding to phosphocellulose filter. Plates were then washed 3 times with 150 µl/well PBS Ca^++/Mg^++ free and filtered by MultiScreen filtration system.
Filters were allowed to dry at 37°C, then 100 µl/well scintillant were added and 33P labeled histone H1 was detected by radioactivity counting in the Top-Count instrument. Results: data were analyzed and expressed as % inhibition referred to total activity of enzyme (=100%).
All compounds showing inhibition ≥ 50 % were further analyzed in order to study and define potency (IC50) as well as the kinetic-profile of inhibitor through Ki calculation. IC50 determination: the protocol used was the same described above, where inhibitors were tested at different concentrations ranging from 0.0045 to 10 µM. […]

[4] = molecular target: FGFR1 (Homo sapiens, UniProt P11362); experiment: Enzyme inhibition activity, FGFR1; type: biochemical
Procedure: as §1

[5] = molecular target: GSK3beta (Homo sapiens, UniProt P49841); experiment: Enzyme inhibition activity, GSK3beta; type: biochemical
Procedure: as §1

[6] = molecular target: T3, JAK3 (Homo sapiens, UniProt P52333); experiment: Enzyme inhibition activity, JAK3; type: biochemical
T3 sequence (P52333 1-1124): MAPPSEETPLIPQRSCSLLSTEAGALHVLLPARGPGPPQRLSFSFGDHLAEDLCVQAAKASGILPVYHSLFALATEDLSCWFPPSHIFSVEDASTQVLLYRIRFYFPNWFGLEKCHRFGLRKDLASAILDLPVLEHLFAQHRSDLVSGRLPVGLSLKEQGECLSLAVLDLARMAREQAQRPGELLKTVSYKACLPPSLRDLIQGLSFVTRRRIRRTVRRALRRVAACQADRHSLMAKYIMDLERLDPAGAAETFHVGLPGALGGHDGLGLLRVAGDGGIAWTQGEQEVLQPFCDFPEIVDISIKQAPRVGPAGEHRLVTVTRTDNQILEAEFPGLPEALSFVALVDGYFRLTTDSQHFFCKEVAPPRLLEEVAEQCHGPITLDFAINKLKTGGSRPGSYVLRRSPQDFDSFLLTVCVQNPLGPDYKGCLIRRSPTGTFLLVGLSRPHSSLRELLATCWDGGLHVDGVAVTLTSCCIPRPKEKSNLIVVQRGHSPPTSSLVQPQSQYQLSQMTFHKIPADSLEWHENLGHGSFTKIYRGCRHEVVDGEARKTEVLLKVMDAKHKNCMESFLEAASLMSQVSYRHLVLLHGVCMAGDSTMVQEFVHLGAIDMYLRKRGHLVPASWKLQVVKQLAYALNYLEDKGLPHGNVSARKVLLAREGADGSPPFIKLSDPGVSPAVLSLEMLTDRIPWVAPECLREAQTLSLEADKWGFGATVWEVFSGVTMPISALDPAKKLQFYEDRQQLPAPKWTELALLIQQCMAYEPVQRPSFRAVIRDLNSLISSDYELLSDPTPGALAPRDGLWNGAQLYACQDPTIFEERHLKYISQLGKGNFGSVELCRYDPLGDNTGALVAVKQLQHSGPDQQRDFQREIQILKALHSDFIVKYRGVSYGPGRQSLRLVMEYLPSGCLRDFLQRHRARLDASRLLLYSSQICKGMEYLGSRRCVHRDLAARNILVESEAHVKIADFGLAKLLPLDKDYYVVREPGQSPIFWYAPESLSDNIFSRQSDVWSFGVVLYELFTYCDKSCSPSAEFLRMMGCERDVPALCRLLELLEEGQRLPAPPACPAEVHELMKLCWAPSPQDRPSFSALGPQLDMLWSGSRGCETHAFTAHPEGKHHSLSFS
Procedure: as §1

[7] = molecular target: T4, PDK1 (Homo sapiens, UniProt O15530); experiment: Enzyme inhibition activity, PDK1; type: biochemical
T4 sequence (O15530 1-556): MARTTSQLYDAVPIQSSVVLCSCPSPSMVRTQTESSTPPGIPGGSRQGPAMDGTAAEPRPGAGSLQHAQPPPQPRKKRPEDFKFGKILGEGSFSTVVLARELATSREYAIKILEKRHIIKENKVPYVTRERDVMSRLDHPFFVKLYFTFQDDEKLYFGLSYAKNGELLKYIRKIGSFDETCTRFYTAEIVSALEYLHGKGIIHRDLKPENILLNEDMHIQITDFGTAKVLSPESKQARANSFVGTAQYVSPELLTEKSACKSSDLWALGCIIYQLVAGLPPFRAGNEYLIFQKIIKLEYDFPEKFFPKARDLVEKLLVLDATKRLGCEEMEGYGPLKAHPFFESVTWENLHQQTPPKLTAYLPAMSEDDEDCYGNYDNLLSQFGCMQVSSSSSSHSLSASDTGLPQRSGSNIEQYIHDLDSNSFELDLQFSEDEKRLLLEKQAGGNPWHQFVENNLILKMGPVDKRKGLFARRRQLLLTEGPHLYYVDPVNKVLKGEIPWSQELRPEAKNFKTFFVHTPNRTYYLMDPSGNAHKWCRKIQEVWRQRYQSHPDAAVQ
Procedure: as §1

[8] = molecular target: PKAalpha (Homo sapiens, UniProt P17612); experiment: Enzyme inhibition activity, PKAalpha; type: biochemical
Procedure: as §1

[9] = molecular target: RET (Homo sapiens, UniProt P07949); experiment: Enzyme inhibition activity, RET; type: biochemical
Procedure: as §1

[10] = molecular target: VEGFR2 (Homo sapiens, UniProt P35968); experiment: Enzyme inhibition activity, VEGFR2; type: biochemical
Procedure: as §1

[11] = molecular target: VEGFR3 (Homo sapiens, UniProt P35916); experiment: Enzyme inhibition activity, VEGFR3; type: biochemical
Procedure: as §1

[12] = test system: A2780; experiment: Cytotoxic activity on cells (cell proliferation, cellular ATP monitoring); type: cell-based; conditions: Homo sapiens; Cell Type A2780; concentration inhibiting cell proliferation by 50%; 72 hours treatment
Procedure: Exponentially growing cells A2780 were seeded and incubated at 37°C in a humidified 5% CO2 atmosphere. After 24 hours, scalar doses of test compound were added to the medium and cells were incubated for additional 72 hours.
At the end of treatment, cell proliferation was determined by a cellular ATP monitoring system which consists of a mixture of luciferase and luciferin, reconstituted in a lysis buffer; 100 µL/well of this solution were added to the cells. The plates were then shaken for 2 minutes in an orbital shaker and were read in a luminometer, with the signal linearly proportional to the cell number.

Chain of AUR1 (Q96GD4 whole entry): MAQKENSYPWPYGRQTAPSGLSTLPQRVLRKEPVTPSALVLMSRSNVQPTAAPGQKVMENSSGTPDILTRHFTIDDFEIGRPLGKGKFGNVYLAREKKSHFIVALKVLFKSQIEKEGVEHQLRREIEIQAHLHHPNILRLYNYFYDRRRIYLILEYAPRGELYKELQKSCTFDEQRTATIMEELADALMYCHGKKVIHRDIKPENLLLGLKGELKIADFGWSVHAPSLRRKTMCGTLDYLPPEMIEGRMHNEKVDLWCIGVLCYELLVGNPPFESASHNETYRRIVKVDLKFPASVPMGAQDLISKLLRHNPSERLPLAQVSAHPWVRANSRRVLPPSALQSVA
Chain of FGFR1 (P11362 22-822, species assumed): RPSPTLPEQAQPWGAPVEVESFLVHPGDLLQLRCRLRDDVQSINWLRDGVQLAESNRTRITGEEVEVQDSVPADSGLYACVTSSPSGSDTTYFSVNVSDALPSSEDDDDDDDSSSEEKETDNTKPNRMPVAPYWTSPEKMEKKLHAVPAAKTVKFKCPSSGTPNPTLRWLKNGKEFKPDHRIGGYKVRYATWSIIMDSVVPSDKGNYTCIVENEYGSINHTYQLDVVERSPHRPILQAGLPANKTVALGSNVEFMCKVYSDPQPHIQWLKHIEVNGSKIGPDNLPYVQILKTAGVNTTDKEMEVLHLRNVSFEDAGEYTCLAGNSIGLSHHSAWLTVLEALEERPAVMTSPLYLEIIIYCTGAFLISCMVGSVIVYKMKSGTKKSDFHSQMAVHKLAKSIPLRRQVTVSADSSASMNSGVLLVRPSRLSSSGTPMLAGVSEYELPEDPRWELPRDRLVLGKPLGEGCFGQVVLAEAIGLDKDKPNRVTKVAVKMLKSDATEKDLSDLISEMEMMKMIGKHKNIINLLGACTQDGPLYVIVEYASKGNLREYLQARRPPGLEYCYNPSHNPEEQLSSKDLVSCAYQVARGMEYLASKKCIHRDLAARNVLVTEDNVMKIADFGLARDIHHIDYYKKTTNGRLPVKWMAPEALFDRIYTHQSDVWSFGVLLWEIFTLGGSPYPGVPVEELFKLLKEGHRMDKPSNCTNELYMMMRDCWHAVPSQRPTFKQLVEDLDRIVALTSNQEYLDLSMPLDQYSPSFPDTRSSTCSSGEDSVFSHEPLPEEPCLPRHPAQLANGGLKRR
Chain of GSK3beta (P49841 whole entry, species assumed): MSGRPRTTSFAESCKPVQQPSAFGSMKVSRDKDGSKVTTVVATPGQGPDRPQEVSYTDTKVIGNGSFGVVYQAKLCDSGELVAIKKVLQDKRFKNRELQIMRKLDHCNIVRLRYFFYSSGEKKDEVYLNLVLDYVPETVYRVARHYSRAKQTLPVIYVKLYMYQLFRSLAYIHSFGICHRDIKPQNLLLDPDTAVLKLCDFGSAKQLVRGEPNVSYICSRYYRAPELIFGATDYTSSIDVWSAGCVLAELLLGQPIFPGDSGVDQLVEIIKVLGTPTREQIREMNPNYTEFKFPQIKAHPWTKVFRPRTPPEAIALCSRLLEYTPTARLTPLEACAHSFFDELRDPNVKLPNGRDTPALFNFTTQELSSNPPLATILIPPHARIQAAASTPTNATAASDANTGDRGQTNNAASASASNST
Chain of VEGFR2 (P35968 20-1356, species assumed): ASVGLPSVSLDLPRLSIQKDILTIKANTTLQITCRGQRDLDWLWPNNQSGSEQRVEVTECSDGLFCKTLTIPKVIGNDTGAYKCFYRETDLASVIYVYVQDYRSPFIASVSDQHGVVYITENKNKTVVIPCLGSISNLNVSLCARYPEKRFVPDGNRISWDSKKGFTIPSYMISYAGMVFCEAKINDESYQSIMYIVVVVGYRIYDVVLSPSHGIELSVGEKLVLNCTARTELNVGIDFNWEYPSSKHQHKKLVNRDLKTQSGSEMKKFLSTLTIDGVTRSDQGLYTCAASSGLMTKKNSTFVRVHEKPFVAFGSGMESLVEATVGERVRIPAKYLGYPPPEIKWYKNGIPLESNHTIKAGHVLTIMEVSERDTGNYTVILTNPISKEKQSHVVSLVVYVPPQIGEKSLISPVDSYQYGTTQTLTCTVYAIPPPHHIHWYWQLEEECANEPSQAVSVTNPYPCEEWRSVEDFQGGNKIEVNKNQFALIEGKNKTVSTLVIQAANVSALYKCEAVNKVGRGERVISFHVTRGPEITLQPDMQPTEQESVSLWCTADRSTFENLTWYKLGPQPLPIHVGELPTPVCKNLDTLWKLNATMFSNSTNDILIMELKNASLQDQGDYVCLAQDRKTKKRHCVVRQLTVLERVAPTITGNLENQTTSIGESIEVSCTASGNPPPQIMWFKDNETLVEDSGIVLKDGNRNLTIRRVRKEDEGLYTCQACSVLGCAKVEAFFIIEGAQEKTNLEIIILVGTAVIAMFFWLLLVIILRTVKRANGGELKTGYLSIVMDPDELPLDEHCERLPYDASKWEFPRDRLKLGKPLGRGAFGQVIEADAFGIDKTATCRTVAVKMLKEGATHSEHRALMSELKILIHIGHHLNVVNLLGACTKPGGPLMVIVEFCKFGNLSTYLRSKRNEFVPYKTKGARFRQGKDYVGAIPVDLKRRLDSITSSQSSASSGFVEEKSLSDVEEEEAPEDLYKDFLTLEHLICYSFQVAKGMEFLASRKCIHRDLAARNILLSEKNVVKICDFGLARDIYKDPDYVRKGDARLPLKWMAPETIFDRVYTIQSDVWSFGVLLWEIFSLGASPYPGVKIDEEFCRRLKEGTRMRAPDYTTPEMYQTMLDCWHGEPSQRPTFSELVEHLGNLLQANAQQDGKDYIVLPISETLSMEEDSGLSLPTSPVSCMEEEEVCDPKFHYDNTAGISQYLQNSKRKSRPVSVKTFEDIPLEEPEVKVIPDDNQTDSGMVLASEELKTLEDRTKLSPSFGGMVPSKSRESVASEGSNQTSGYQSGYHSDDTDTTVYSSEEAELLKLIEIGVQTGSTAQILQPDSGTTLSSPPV
Chain of RET (P07949 29-1114, species assumed): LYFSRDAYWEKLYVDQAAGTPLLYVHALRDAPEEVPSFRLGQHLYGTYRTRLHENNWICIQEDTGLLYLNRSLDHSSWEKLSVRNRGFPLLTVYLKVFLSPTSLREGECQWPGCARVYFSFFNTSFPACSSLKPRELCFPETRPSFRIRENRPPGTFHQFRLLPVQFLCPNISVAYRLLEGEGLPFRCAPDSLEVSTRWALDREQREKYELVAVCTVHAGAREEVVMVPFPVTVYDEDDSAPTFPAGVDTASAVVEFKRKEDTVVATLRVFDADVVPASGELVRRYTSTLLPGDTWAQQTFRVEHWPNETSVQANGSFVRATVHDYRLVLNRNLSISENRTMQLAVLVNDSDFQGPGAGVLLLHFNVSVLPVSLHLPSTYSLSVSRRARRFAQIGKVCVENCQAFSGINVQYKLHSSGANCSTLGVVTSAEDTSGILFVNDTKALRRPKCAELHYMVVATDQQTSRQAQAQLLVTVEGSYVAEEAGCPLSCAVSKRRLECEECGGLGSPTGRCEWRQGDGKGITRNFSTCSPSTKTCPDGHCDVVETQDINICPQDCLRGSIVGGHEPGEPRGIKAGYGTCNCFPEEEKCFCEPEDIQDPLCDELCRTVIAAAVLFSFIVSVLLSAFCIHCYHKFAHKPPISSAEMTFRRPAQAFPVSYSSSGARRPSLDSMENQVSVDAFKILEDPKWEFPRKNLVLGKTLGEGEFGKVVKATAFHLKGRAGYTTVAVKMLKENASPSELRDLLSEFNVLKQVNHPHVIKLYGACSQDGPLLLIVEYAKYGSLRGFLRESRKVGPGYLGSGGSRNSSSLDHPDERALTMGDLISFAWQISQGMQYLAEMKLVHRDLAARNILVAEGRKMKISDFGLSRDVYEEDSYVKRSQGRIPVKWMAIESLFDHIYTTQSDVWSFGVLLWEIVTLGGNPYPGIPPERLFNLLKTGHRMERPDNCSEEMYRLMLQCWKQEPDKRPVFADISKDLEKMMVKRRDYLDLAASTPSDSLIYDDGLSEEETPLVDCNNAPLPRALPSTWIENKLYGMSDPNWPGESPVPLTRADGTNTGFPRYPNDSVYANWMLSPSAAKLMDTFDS

Structure (SMILES): CCCCC(C)C(=O)Nc1ccc2[nH]c3c(=O)[nH]cc(CC(=O)NC)c3c2c1 (stereo not drawn) [Compound XIIIh, 2-Methyl-N-{4-[2-(methylamino)-2-oxoethyl]-1-oxo-2,9-dihydro-1H-beta-carbolin-6-yl}hexanamide]
- pIC50 [1]: 6.37
- pIC50 [2]: 7.29
- pIC50 [3]: 5.77
- pIC50 [4]: 5.60
- pIC50 [5]: 5.72
- pIC50 [6]: 5.75
- pIC50 [7]: 5.88
- pIC50 [8]: 6.06
- pIC50 [9]: 5.97
- pIC50 [10]: 5.72
- pIC50 [11]: 6.23
- pIC50 [12]: 5.44

Source: patent publication EP2003129B1, “1H-Pyrido[3,4-B]indol-1-one and 2,3,4,9-Tetrahydro-1H-Beta-Carbolin-1-one Derivatives” (Nerviano Medical Sciences S.r.l., priority 2007, dated 2008)
